Experiment [1] concerns PHBPU. As to the kind of experiment: Pre-emergence herbicidal action against PHBPU. Format: in vivo, Pharbitis purpurea. Conditions: 1280 g/ha, scored visually after about 3 weeks vs untreated controls. The text has this:
(§1) Seeds of mono- and dicotyledonous weed plants are placed in plastic pots in sandy loam soil (doubly sown with one species each of mono- or dicotyledonous weed plants per pot) and covered with soil. The compounds of the invention, formulated in the form of wettable powders (WP) or as emulsion concentrates (EC), are then applied onto the surface of the covering soil as aqueous suspension or emulsion with addition of 0.5% additive at a water application rate equivalent to 600 litres per hectare. After the treatment, the pots are placed in a greenhouse and kept under good growth conditions for the trial plants. After about 3 weeks, the effect of the preparations is scored visually in comparison with untreated controls as percentages. For example, 100% activity=the plants have died, 0% activity=like control plants. [table] Tables 4.1-4.15 below show the effects of selected compounds of the general formula (I) according to Tables 1 to 3 on various harmful plants at an application rate corresponding to 1280 or 320 g/ha, which have been obtained by the aforementioned experimental method.

Experiment [2] concerns AMARE. As to the kind of experiment: Pre-emergence herbicidal action against AMARE. In kind it is in vivo, Amaranthus retroflexus. Conditions: scored visually after about 3 weeks vs untreated controls; for Pre-emergence action at 320 g/ha against AMARE in %: 100% = plants have died, 0% = like control plants; for Pre-emergence action against AMARE in %: 1280 g/ha. The gist of the method: (§2)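 Visual percent activity (100% = plants dead, 0% = like control) scored about 3 weeks after pre-emergence treatment in greenhouse. Compounds as WP or EC, applied to covering soil surface with 0.5% additive, 600 L/ha water, at 1280 or 320 g/ha.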

The test system of experiment [3] is STEME. As to the kind of experiment: Pre-emergence herbicidal action against STEME. The conditions noted are these: scored visually after about 3 weeks vs untreated controls. In kind it is in vivo, Stellaria media. The gist of the method:
as §2

Experiment [4] relates to POLCO. As to the kind of experiment: Pre-emergence herbicidal action against POLCO. In kind it is in vivo, Polygonum convolvulus. Conditions: 320 g/ha, scored visually after about 3 weeks vs untreated controls. Summed up:
as §2

Experiment [5] concerns MATIN. As to the kind of experiment: Pre-emergence herbicidal action against MATIN. In kind it is in vivo, Matricaria inodora. Conditions: 1280 g/ha, scored visually after about 3 weeks vs untreated controls. The gist of the method:
as §2

Experiment [6] concerns SETVI. As to the kind of experiment: Post-emergence herbicidal action against SETVI. Format: in vivo, Setaria viridis. The conditions noted are these: 1280 g/ha, post-emergence at one-leaf stage, rated visually after about 3 weeks vs untreated controls. Summed up: (§3)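 Visual % damage (100% = dead, 0% = like untreated control) was scored about 3 weeks after foliar spraying of one-leaf-stage plants grown in sandy loam. Doses were 1280 or 320 g/ha, applied as aqueous WP/EC preparations with 0.5% additive in 600 litres per hectare water.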

Experiment [7] relates to harmful plants. As to the kind of experiment: Post-emergence herbicidal action, summary of Tables 5.1-5.16. Format: in vivo. Conditions: result in words. As to the method: Seeds of mono- and dicotyledonous weed plants are placed in plastic pots in sandy loam soil (twin sowing with one species each of mono- or dicotyledonous weed plants per pot), covered with soil and cultivated in a greenhouse under controlled growth conditions. 2 to 3 weeks after sowing, the test plants are treated at the one-leaf stage. The compounds of the invention, formulated in the form of wettable powders (WP) or as emulsion concentrates (EC), are applied to the green parts of the plants as aqueous suspension or emulsion with addition of 0.5% additive at a water application rate equivalent to 600 litres per hectare. After the test plants have been kept in the greenhouse under optimum growth conditions for about 3 weeks, the activity of the preparations is rated visually in comparison to untreated controls. For example, 100% activity=the plants have died, 0% activity=like control plants. Tables 5.1-5.16 below show the effects of selected compounds of the general formula (I) according to Tables 1 to 3 on various harmful plants at an application rate corresponding to 1280 or 320 g/ha, which have been obtained by the aforementioned experimental method. As the results from Tables 5.1-5.16 show, compounds of the invention have good herbicidal post-emergence efficacy against a broad spectrum of weed grasses and weeds. […] For example, compounds Nos. I-002, I-006, I-022, I-056 and I-072 applied by the post-emergence method have very good herbicidal action (80% to 100% herbicidal action) against harmful plants such as Alopecurus myosuroides, Amaranthus retroflexus, Matricaria inodora, Setaria viridis, Pharbitis purpurea and Stellaria media at an application rate of 1.28 kg of active substance or less per hectare.

Experiment [8] concerns harmful plants. As to the kind of experiment: Pre-emergence herbicidal action, summary of Tables 4.1-4.15. In kind it is in vivo. Conditions: result in words. The gist of the method: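 Percent herbicidal action (100% = plants dead, 0% = like controls) was assessed visually about 3 weeks after treatment. Application rates of 1280 or 320 g/ha were applied to the covering soil of freshly sown sandy-loam pots, in 600 l/ha water with 0.5% additive, before emergence.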

The subject of experiment [9] is ECHCG. As to the kind of experiment: Post-emergence herbicidal action against ECHCG. Format: in vivo, Echinochloa crus-galli. Conditions: 1280 g/ha, post-emergence at one-leaf stage, rated visually after about 3 weeks vs untreated controls. Summed up: as §3
The subject of experiment [10] is ALOMY. As to the kind of experiment: Post-emergence herbicidal action against ALOMY. Format: in vivo, Alopecurus myosuroides. The conditions noted are these: 1280 g/ha, post-emergence at one-leaf stage, rated visually after about 3 weeks vs untreated controls. The gist of the method:
as §3

Experiment [11] relates to VIOTR. As to the kind of experiment: Pre-emergence herbicidal action against VIOTR. Format: in vivo, Viola tricolor. Conditions: 1280 g/ha, scored visually after about 3 weeks vs untreated controls. Summed up:
as §2

Experiment [12] has as its system SETVI. As to the kind of experiment: Pre-emergence herbicidal action against SETVI. Format: in vivo, Setaria viridis. Conditions: 1280 g/ha, scored visually after about 3 weeks vs untreated controls. Summed up:
as §2

For experiment [13], the system named is MATIN. As to the kind of experiment: Post-emergence herbicidal action against MATIN. Conditions: 1280 g/ha, visual rating about 3 weeks after treatment. In kind it is in vivo, Matricaria inodora. Summed up:
as §3

The test system of experiment [14] is AMARE. As to the kind of experiment: Post-emergence herbicidal action against AMARE. In kind it is in vivo, Amaranthus retroflexus. Conditions: visual rating about 3 weeks after treatment. Summed up: as §3
Experiment [15] has as its system ALOMY. As to the kind of experiment: Pre-emergence herbicidal action against ALOMY. Conditions: scored visually after about 3 weeks vs untreated controls, 100% = plants have died, 0% = like control plants. Format: in vivo, Alopecurus myosuroides.
Description: as §1

Experiment [16] has as its system STEME. As to the kind of experiment: Post-emergence herbicidal action against STEME. Format: in vivo, Stellaria media. The conditions noted are these: 1280 g/ha, visual rating about 3 weeks after treatment. The gist of the method: as §3
In experiment [17] the test system is PHBPU. As to the kind of experiment: Post-emergence herbicidal action against PHBPU. Conditions: 320 g/ha, visual rating about 3 weeks after treatment. In kind it is in vivo, Pharbitis purpurea. The gist of the method: as §3
Experiment [18] has as its system POLCO. As to the kind of experiment: Post-emergence herbicidal action against POLCO. The conditions noted are these: 320 g/ha, visual rating about 3 weeks after treatment. Format: in vivo, Polygonum convolvulus. The gist of the method: as §3
In experiment [19] the test system is ECHCG. As to the kind of experiment: Pre-emergence herbicidal action against ECHCG. In kind it is in vivo, Echinochloa crus-galli. Conditions: scored visually after about 3 weeks vs untreated controls, 100% = plants have died, 0% = like control plants. The gist of the method:
as §2

The next experiment concerns CYPES. As to the kind of experiment: Pre-emergence herbicidal action against CYPES. The conditions noted are these: scored visually after about 3 weeks vs untreated controls, 100% = plants have died, 0% = like control plants. Format: in vivo, Cyperus esculentus.
Description: as §1

Experiment [20] has as its system VIOTR. As to the kind of experiment: Post-emergence herbicidal action against VIOTR. Conditions: 320 g/ha, visual rating about 3 weeks after treatment. Format: in vivo, Viola tricolor. The gist of the method:
as §3

SMILES strings stand for the structures.

Regarding `CCOC(=O)COc1nn(-c2ccc(F)cc2)c(-c2ccccc2)c1Br` [I-072], in the experiment on PHBPU [1], the “Pre-emergence action against PHBPU in %” value amounted to 90%. Further, in the experiment on AMARE [2], the “Pre-emergence action at 320 g/ha against AMARE in %” value is recorded as 80% and the “Pre-emergence action against AMARE in %” value was 90%. Further, in the experiment on STEME [3] (1280 g/ha), the “Pre-emergence action against STEME in %” value came out at 90%. Besides, in the experiment on POLCO [4], the “Pre-emergence action against POLCO in %” value is on record as 90%. The “Pre-emergence action against MATIN in %” value with MATIN [5] is 80%. Besides, in the experiment with SETVI [6], the “Post-emergence action against SETVI in %” value is listed as 80%. Moreover, the “herbicidal efficacy against harmful plants when applied post-emergence” value in the experiment on harmful plants [7] was “very good herbicidal efficacy”. In addition, in the experiment on harmful plants [8], the “herbicidal efficacy against harmful plants in the case of pre-emergence treatment” value is on record as “good herbicidal efficacy”. In addition, in the experiment on ECHCG [9], the “Post-emergence action against ECHCG in %” value was 80%. In the experiment on ALOMY [10], the “Post-emergence action against ALOMY in %” value turned out to be 80%. In addition, in the experiment with VIOTR [11], the “Pre-emergence action against VIOTR in %” value is 80%. The “Pre-emergence action against SETVI in %” value with SETVI [12] is recorded as 80%. In addition, the “Post-emergence action against MATIN in %” value with MATIN [13] was found to be 80%. In addition, the “Post-emergence action against AMARE in %” value in the experiment with AMARE [14] (1280 g/ha) is given as 80%. In addition, in the experiment on ALOMY [15], the “Pre-emergence action at 1280 g/ha against ALOMY in %” value is on record as 80%. The “Post-emergence action against STEME in %” value with STEME [16] is reported as 80%.
Turning to `COC(=O)C(C)Oc1nn(-c2ccccc2F)c(-c2ccccc2)c1C#N` (centres unmarked) [I-061], in the experiment with PHBPU [17], the “Post-emergence action against PHBPU in %” value is 80%. The “Pre-emergence action against PHBPU in %” value in the experiment with PHBPU [1] came out at 90%. For the same compound, in the experiment on AMARE [2], the “Pre-emergence action at 320 g/ha against AMARE in %” value is 90%. Moreover, the “Pre-emergence action against AMARE in %” value in the experiment on AMARE [2] came to 100%. Besides, the “Pre-emergence action against STEME in %” value in the experiment with STEME [3] (320 g/ha) amounted to 90%; with STEME [3] (1280 g/ha), 100%. For the same compound, in the experiment with MATIN [5], the “Pre-emergence action against MATIN in %” value was 90%. The “Post-emergence action against SETVI in %” value in the experiment on SETVI [6] stood at 80%. Also, the “Post-emergence action against POLCO in %” value in the experiment with POLCO [18] stood at 80%. Moreover, the “herbicidal efficacy against harmful plants in the case of pre-emergence treatment” value in the experiment on harmful plants [8] is given as “good herbicidal efficacy”. For the same compound, the “Post-emergence action against ECHCG in %” value with ECHCG [9] is reported as 80%. In addition, the “Post-emergence action against ALOMY in %” value in the experiment on ALOMY [10] amounted to 90%. Moreover, in the experiment with VIOTR [11], the “Pre-emergence action against VIOTR in %” value was determined as 90%. For the same compound, in the experiment on SETVI [12], the “Pre-emergence action against SETVI in %” value stood at 100%. Also, the “Pre-emergence action at 1280 g/ha against ECHCG in %” value in the experiment with ECHCG [19] is on record as 90%. For the same compound, the “Post-emergence action against AMARE in %” value in the experiment with AMARE [14] (320 g/ha) and with AMARE [14] (1280 g/ha) was 80% each time. The “Pre-emergence action at 1280 g/ha against ALOMY in %” value in the experiment on ALOMY [15] worked out at 90%. Moreover, in the experiment with STEME [16], the “Post-emergence action against STEME in %” value was 80%. For the same compound, the “Pre-emergence action at 1280 g/ha against CYPES in %” value in the experiment with CYPES is given as 90%. In addition, the “Post-emergence action against VIOTR in %” value in the experiment on VIOTR [20] was determined as 80%.
